{"source": "patent US10208033B2", "about": "“β-carboline, dihydro-β-carboline and tetrahydro-β-carboline alkaloid derivatives and preparation methods same and use in aspects of preventing and treating plant viruses, fungicides and insecticides” (NANKAI UNIVERSITY, priority 2013, dated 2019)", "key": {"[1]": {"system": "tobacco mosaic virus (TMV)", "test": "Anti-TMV in vitro effect (half-leaf soaking)", "format": "cell-based, tobacco mosaic virus (host Nicotiana tabacum L.cv.Xanthi NN)"}, "[2]": {"system": "tobacco mosaic virus (TMV)", "test": "Anti-TMV in vivo inactivation", "parameters": "species or system tobacco mosaic virus (host Nicotiana tabacum L.cv.Xanthi NN)"}, "[3]": {"system": "tobacco mosaic virus (TMV)", "test": "Anti-TMV in vivo therapeutic effect", "parameters": "species or system tobacco mosaic virus (host Nicotiana tabacum L.cv.Xanthi NN)"}, "[4]": {"system": "tobacco mosaic virus (TMV)", "test": "Anti-TMV in vivo protective effect", "parameters": "species or system tobacco mosaic virus (host Nicotiana tabacum L.cv.Xanthi NN)"}, "cucumber fusarium wilt": {"system": "cucumber fusarium wilt", "test": "Fungicidal (bactericidal) activity in vitro, PDA colony diameter", "format": "cell-based", "details": "50 mg/kg"}, "Cercospora arachidicola": {"system": "Cercospora arachidicola", "test": "Fungicidal (bactericidal) activity in vitro, PDA colony diameter", "format": "cell-based", "details": "50 mg/kg"}, "Macrophoma kawatsukai": {"system": "Macrophoma kawatsukai", "test": "Fungicidal (bactericidal) activity in vitro, PDA colony diameter", "format": "cell-based", "details": "50 mg/kg"}, "Alternaria solani": {"system": "Alternaria solani", "test": "Fungicidal (bactericidal) activity in vitro, PDA colony diameter", "format": "cell-based", "details": "50 mg/kg"}, "Fusarium graminearumt": {"system": "Fusarium graminearumt", "test": "microbe, parasite or virus in culture", "format": "cell-based"}, "potato late blight": {"system": "potato late blight", "test": "microbe, parasite or virus in culture", "format": "cell-based"}, "Sclerotinia scleotiorum": {"system": "Sclerotinia scleotiorum", "test": "Fungicidal (bactericidal) activity in vitro, PDA colony diameter", "format": "cell-based", "details": "50 mg/kg"}, "Botrytis cinerea": {"system": "Botrytis cinerea", "test": "Fungicidal (bactericidal) activity in vitro, PDA colony diameter", "format": "cell-based", "details": "50 mg/kg"}, "Rhizoctonia solani": {"system": "Rhizoctonia solani", "test": "Fungicidal (bactericidal) activity in vitro, PDA colony diameter", "format": "cell-based", "details": "50 mg/kg"}, "Phytophthora capsici": {"system": "Phytophthora capsici", "test": "Fungicidal (bactericidal) activity in vitro, PDA colony diameter", "format": "cell-based", "details": "50 mg/kg"}, "Fusarium fujikuroi": {"system": "Fusarium fujikuroi", "test": "Fungicidal (bactericidal) activity in vitro, PDA colony diameter", "format": "cell-based", "details": "50 mg/kg"}, "Rhizoctonia cereali": {"system": "Rhizoctonia cereali", "test": "Fungicidal (bactericidal) activity in vitro, PDA colony diameter", "format": "cell-based", "details": "50 mg/kg"}, "Bipolaria maydis": {"system": "Bipolaria maydis", "test": "organism not typed", "format": "cell-based"}, "[5]": {"system": "Colletotrichum orbiculare", "test": "Fungicidal (bactericidal) activity in vitro, PDA colony diameter", "format": "cell-based", "details": "50 mg/kg"}, "armyworms": {"system": "armyworms", "format": "in vivo", "details": "concentration 600 mg/kg"}, "cotton bollworms": {"system": "cotton bollworms", "test": "whole plant or invertebrate", "experimental": "Experimental method of cotton bollworms: feed and drug mixing method: measure 3 mL of prepared solution and add it to about 27 g of newly prepared feed, thereby obtaining needed concentration through dilution by 10 times."}, "mosquito larvae": {"system": "mosquito larvae", "test": "whole plant or invertebrate", "details": "24 h", "summary_of_the_method": "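Compound dissolved in acetone (or other solvent) to a 1000 ppm stock and diluted in water to 5 ppm. Ten Culex pipiens pallens larvae at the start of the fourth instar, laboratory-reared, added per beaker; solvent-only aqueous control.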"}, "corn borers [6]": {"system": "corn borers", "test": "whole plant or invertebrate", "details": "read-out: Corn borer Mortality (%)"}, "[7]": {"system": "tobacco mosaic virus (TMV)", "test": "Anti-TMV activity, overall statements on Table 1", "format": "in vivo, tobacco mosaic virus (host Nicotiana tabacum L.cv.Xanthi NN)", "details": "100 μg/mL versus ningnanmycin at 100 μg/mL"}, "corn borers [8]": {"system": "corn borers", "details": "concentration 600 mg/kg"}}, "data": [{"smiles": "C[C@@H]1N[C@H](C(=O)NCN(C)C)Cc2c1[nH]c1ccccc21", "note": "[Ib-19, (1S, 3S)—N-((dimethylamino)methyl)-1-methyl-2,3,4,9-tetrahydro-pyridino [3,4-b] indol-3-formamide]", "values": [{"measurement": "inhibition at 100 µg/mL", "setting": "[1]; Tobacco mosaic virus, treatment dose 100 μg/mL, read-out: Relative inhibition rate (%) In vitro activity", "value": 0, "unit": "%"}, {"measurement": "inhibition at 500 µg/mL", "setting": "[1]; Tobacco mosaic virus, treatment dose 500 μg/mL, read-out: Relative inhibition rate (%) In vitro activity", "value": 26.6, "unit": "%"}, {"measurement": "inhibition at 100 µg/mL", "setting": "[2]; Tobacco mosaic virus, treatment dose 100 μg/mL, read-out: Relative inhibition rate (%) In vivo inactivation", "value": 0, "unit": "%"}, {"measurement": "inhibition at 500 µg/mL", "setting": "[2]; Tobacco mosaic virus, treatment dose 500 μg/mL, read-out: Relative inhibition rate (%) In vivo inactivation", "value": 18.5, "unit": "%"}, {"measurement": "inhibition at 100 µg/mL", "setting": "[3]; Tobacco mosaic virus, treatment dose 100 μg/mL, read-out: Relative inhibition rate (%) In vivo therapy", "value": 0, "unit": "%"}, {"measurement": "inhibition at 500 µg/mL", "setting": "[3]; Tobacco mosaic virus, treatment dose 500 μg/mL, read-out: Relative inhibition rate (%) In vivo therapy", "value": 20.9, "unit": "%"}, {"measurement": "inhibition at 100 µg/mL", "setting": "[4]; Tobacco mosaic virus, treatment dose 100 μg/mL, read-out: Relative inhibition rate (%) In vivo protection", "value": 0, "unit": "%"}, {"measurement": "inhibition at 500 µg/mL", "setting": "[4]; Tobacco mosaic virus, treatment dose 500 μg/mL, read-out: Relative inhibition rate (%) In vivo protection", "value": 24.7, "unit": "%"}, {"measurement": "inhibition of growth at 50 mg/kg", "setting": "cucumber fusarium wilt; Fusarium, 96 h", "value": 19.2, "unit": "%"}, {"measurement": "inhibition of growth at 50 mg/kg", "setting": "Cercospora arachidicola; Mycosphaerella arachidis, 96 h", "value": 41.2, "unit": "%"}, {"measurement": "inhibition at 50 mg/kg", "setting": "Macrophoma kawatsukai", "value": 55.6, "unit": "%"}, {"measurement": "inhibition of growth at 50 mg/kg", "setting": "Alternaria solani; Alternaria solani, 96 h", "value": 25, "unit": "%"}, {"measurement": "inhibition of growth at 50 mg/kg", "setting": "Fusarium graminearumt; Fusarium, 96 h, read-out: Bactericidal activity (%) Fusarium graminearumt", "value": 27.6, "unit": "%"}, {"measurement": "inhibition of growth at 50 mg/kg", "setting": "potato late blight; Phytophthora infestans, 96 h, read-out: Bactericidal activity (%) potato late blight", "value": 20, "unit": "%"}, {"measurement": "inhibition of growth at 50 mg/kg", "setting": "Sclerotinia scleotiorum; Sclerotinia, 96 h", "value": 35.3, "unit": "%"}, {"measurement": "inhibition of growth at 50 mg/kg", "setting": "Botrytis cinerea; Botrytis cinerea, 96 h", "value": 27.3, "unit": "%"}, {"measurement": "inhibition of growth at 50 mg/kg", "setting": "Rhizoctonia solani; Rhizoctonia solani, 96 h", "value": 26.3, "unit": "%"}, {"measurement": "inhibition of growth at 50 mg/kg", "setting": "Phytophthora capsici; Phytophthora capsici, 96 h", "value": 7.9, "unit": "%"}, {"measurement": "inhibition of growth at 50 mg/kg", "setting": "Fusarium fujikuroi; Fusarium fujikuroi, 96 h", "value": 21.4, "unit": "%"}, {"measurement": "inhibition of growth at 50 mg/kg", "setting": "Rhizoctonia cereali; Rhizoctonia, 96 h", "value": 47.1, "unit": "%"}, {"measurement": "inhibition at 50 mg/kg", "setting": "Bipolaria maydis; read-out: Bactericidal activity (%) Bipolaria maydis", "value": 24, "unit": "%"}, {"measurement": "inhibition of growth at 50 mg/kg", "setting": "[5]; Colletotrichum orbiculare, 96 h", "value": 25.9, "unit": "%"}, {"measurement": "Armyworm Mortality (%)", "setting": "armyworms", "value": 5, "unit": "%"}, {"measurement": "mortality at 600 mg/kg", "setting": "cotton bollworms; Helicoverpa armigera, in Gossypium hirsutum, read-out: Cotton bollworm Mortality (%)", "value": 60, "unit": "%"}, {"measurement": "mortality at 10 mg/kg", "setting": "mosquito larvae; Culex pipiens, read-out: Mosquito larvae Mortality (%)", "value": 20, "unit": "%"}, {"measurement": "mortality at 600 mg/kg", "setting": "corn borers [6]", "value": 10, "unit": "%"}]}, {"smiles": "C[C@@H]1N[C@H](C(=O)NN=Cc2ccc3c(c2)OCO3)Cc2c1[nH]c1ccccc21", "note": "[Ic-12]", "values": [{"measurement": "Relative inhibition rate (%) In vitro activity", "setting": "[1]; treatment dose 100 μg/mL", "value": 29.1, "unit": "%"}, {"measurement": "Relative inhibition rate (%) In vitro activity", "setting": "[1]; treatment dose 500 μg/mL", "value": 72.6, "unit": "%"}, {"measurement": "Relative inhibition rate (%) In vivo inactivation", "setting": "[2]; treatment dose 100 μg/mL", "value": 33.6, "unit": "%"}, {"measurement": "Relative inhibition rate (%) In vivo inactivation", "setting": "[2]; treatment dose 500 μg/mL", "value": 74.5, "unit": "%"}, {"measurement": "Relative inhibition rate (%) In vivo therapy", "setting": "[3]; treatment dose 100 μg/mL", "value": 30.2, "unit": "%"}, {"measurement": "Relative inhibition rate (%) In vivo therapy", "setting": "[3]; treatment dose 500 μg/mL", "value": 69, "unit": "%"}, {"measurement": "Relative inhibition rate (%) In vivo protection", "setting": "[4]; treatment dose 100 μg/mL", "value": 35.8, "unit": "%"}, {"measurement": "Relative inhibition rate (%) In vivo protection", "setting": "[4]; treatment dose 500 μg/mL", "value": 68.1, "unit": "%"}, {"measurement": "Bactericidal activity (%) Cucumber fusarium wilt", "setting": "cucumber fusarium wilt", "value": 31.8, "unit": "%"}, {"measurement": "Bactericidal activity (%) Cercospora arachidicola", "setting": "Cercospora arachidicola", "value": 63.6, "unit": "%"}, {"measurement": "Bactericidal activity (%) Macrophoma kawatsukai", "setting": "Macrophoma kawatsukai", "value": 63.6, "unit": "%"}, {"measurement": "Bactericidal activity (%) Alternaria solani", "setting": "Alternaria solani", "value": 52.4, "unit": "%"}, {"measurement": "Bactericidal activity (%) Fusarium graminearumt", "setting": "Fusarium graminearumt; 50 mg/kg", "value": 53.8, "unit": "%"}, {"measurement": "Bactericidal activity (%) potato late blight", "setting": "potato late blight", "value": 39.1, "unit": "%"}, {"measurement": "Bactericidal activity (%) Sclerotinia scleotiorum", "setting": "Sclerotinia scleotiorum", "value": 44.2, "unit": "%"}, {"measurement": "Bactericidal activity (%) Botrytis cinerea", "setting": "Botrytis cinerea", "value": 88.9, "unit": "%"}, {"measurement": "Bactericidal activity (%) Rhizoctonia solani", "setting": "Rhizoctonia solani", "value": 50.0, "unit": "%"}, {"measurement": "Bactericidal activity (%) Phytophthora capsici", "setting": "Phytophthora capsici", "value": 81.8, "unit": "%"}, {"measurement": "Bactericidal activity (%) Fusarium fujikuroi", "setting": "Fusarium fujikuroi", "value": 58.8, "unit": "%"}, {"measurement": "Bactericidal activity (%) Rhizoctonia cereali", "setting": "Rhizoctonia cereali", "value": 86.5, "unit": "%"}, {"measurement": "Bactericidal activity (%) Bipolaria maydis", "setting": "Bipolaria maydis; 50 mg/kg", "value": 56.0, "unit": "%"}, {"measurement": "Bactericidal activity (%) Colletotrichum orbiculare", "setting": "[5]", "value": 48.0, "unit": "%"}, {"measurement": "Armyworm Mortality (%)", "setting": "armyworms", "value": 15, "unit": "%"}, {"measurement": "Cotton bollworm Mortality (%)", "setting": "cotton bollworms; concentration 600 mg/kg", "value": 30, "unit": "%"}, {"measurement": "Mosquito larvae Mortality (%)", "setting": "mosquito larvae; concentration 10 mg/kg", "value": 15, "unit": "%"}, {"measurement": "anti-TMV activity compared with ningnanmycin", "setting": "[7]", "value": "equivalent to the activity of commercial variety ningnanmycin"}, {"measurement": "Corn borer Mortality (%)", "setting": "corn borers [8]", "value": 15, "unit": "%"}]}]}
